Where a chain is given by its changes, count along the chain named.
Legend:
Assay in all cases: liposome lipid transfer, NBD dequenching
Assay type in all cases: biochemical
PRELID1–TRIAP1 [1] = target: T1, PRELID1–TRIAP1 (Homo sapiens, UniProt Q9Y255); conditions: labelled compound, 12.5 µM donor and 50 µM acceptor liposomes, pH 7.4, 20 °C
T1 construct: N-His-tagged PRELID1 co-expressed with TRIAP1 from pETDuet-1 in E. coli; heterodimer

Ups2Δ174–Mdm35 = target: T2, Ups2Δ174–Mdm35 (Saccharomyces cerevisiae, UniProt P35200); conditions: labelled compound, 50 nM complex, 12.5 µM donor and 50 µM acceptor liposomes, pH 7.4, 25 °C
T2 construct: gene UPS2; N-His Ups2 truncated after W174, with Mdm35, E. coli Rosetta-gami2; with Mitochondrial distribution and morphology protein 35
T2 sequence (P35200 1-174): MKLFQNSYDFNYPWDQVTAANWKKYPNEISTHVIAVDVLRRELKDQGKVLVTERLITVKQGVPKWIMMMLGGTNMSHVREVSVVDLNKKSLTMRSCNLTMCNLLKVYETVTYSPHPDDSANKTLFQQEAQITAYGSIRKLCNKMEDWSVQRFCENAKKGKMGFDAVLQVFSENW
T2 sequence (O60200 1-86 partner): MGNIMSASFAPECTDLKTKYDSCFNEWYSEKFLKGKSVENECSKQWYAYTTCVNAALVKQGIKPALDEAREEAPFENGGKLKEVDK

Ups1–Mdm35 [2] = target: T3, Ups1–Mdm35 (Saccharomyces cerevisiae, UniProt Q05776); conditions: labelled compound, 12.5 µM donor and 50 µM acceptor liposomes, pH 7.4, 20 °C
T3 construct: N-terminally His-tagged Ups1 with Mdm35, E. coli S30 cell-free expression; heterodimer; with Mitochondrial distribution and morphology protein 35
T3 sequence (Q05776 1-175): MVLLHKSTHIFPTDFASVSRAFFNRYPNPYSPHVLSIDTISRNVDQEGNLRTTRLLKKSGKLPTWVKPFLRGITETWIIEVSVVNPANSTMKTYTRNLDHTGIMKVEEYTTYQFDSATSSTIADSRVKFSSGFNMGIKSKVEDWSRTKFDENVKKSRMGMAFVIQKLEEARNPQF
T3 sequence (O60200 1-86 partner): T2 sequence (O60200 1-86 partner)

Ups2 loop-swap variant = target: T4, Ups2 loop-swap variant (Saccharomyces cerevisiae, UniProt P35200); conditions: labelled compound; 50 nM complex, 12.5 µM donor and 50 µM acceptor liposomes, pH 7.4, 25 °C
T4 construct: N-His Ups2Δ174 carrying the Ups1 Omega loop (residues 60-71), codon-optimised, with Mdm35, E. coli Rosetta-gami2; with Mitochondrial distribution and morphology protein 35
T4 sequence (P35200 1-174): T2 sequence (P35200 1-174)
T4 sequence (O60200 1-86 partner): T2 sequence (O60200 1-86 partner)

Ups1–Mdm35 [3] = target: T5, Ups1–Mdm35 (Saccharomyces cerevisiae, UniProt Q05776, E108D); conditions: labelled compound; 50 nM complex, 12.5 µM donor and 50 µM acceptor liposomes, pH 7.4, 20 °C
T5 construct: N-terminally His-tagged Ups1 with Mdm35, E. coli S30 cell-free expression; heterodimer; with Mitochondrial distribution and morphology protein 35
T5 sequence (Q05776 1-175 E108D): T3 sequence (Q05776 1-175) with E108D
T5 sequence (O60200 1-86 partner): T2 sequence (O60200 1-86 partner)

PRELID1–TRIAP1 [4] = target: T6, PRELID1–TRIAP1 (Homo sapiens, UniProt Q9Y255, K58V); conditions: labelled compound; 120 nM complex, 12.5 µM donor and 50 µM acceptor liposomes, pH 7.4, 20 °C
T6 construct: N-His-tagged PRELID1 co-expressed with TRIAP1 from pETDuet-1 in E. coli; heterodimer

PRELID1–TRIAP1 [5] = target: T7, PRELID1–TRIAP1 (Homo sapiens, UniProt Q9Y255, K58T); conditions: labelled compound; 120 nM complex, 12.5 µM donor and 50 µM acceptor liposomes, pH 7.4, 20 °C
T7 construct: N-His-tagged PRELID1 co-expressed with TRIAP1 from pETDuet-1 in E. coli; heterodimer

Ups1–Mdm35 [6] = target: T8, Ups1–Mdm35 (Saccharomyces cerevisiae, UniProt Q05776, K58V); conditions: labelled compound; 50 nM complex, 12.5 µM donor and 50 µM acceptor liposomes, pH 7.4, 20 °C
T8 construct: N-terminally His-tagged Ups1 with Mdm35, E. coli S30 cell-free expression; heterodimer; with Mitochondrial distribution and morphology protein 35
T8 sequence (Q05776 1-175 K58V): T3 sequence (Q05776 1-175) with K58V
T8 sequence (O60200 1-86 partner): T2 sequence (O60200 1-86 partner)

T1 sequence (Q9Y255 whole entry): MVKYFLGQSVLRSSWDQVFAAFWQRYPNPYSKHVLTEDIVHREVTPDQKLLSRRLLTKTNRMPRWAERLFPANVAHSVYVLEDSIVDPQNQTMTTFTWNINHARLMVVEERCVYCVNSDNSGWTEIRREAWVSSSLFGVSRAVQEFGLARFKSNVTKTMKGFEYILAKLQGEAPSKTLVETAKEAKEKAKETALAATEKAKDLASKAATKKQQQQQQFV
T1 sequence (O43715 whole entry partner): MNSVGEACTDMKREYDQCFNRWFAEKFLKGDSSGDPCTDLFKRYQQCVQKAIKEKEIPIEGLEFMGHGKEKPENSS
T7 sequence (Q9Y255 whole entry K58T): as the sequence (Q9Y255 whole entry) above, with K58T counted along it
T7 sequence (O43715 whole entry partner): as the sequence (O43715 whole entry partner) above
T6 sequence (Q9Y255 whole entry K58V): as the sequence (Q9Y255 whole entry) above, with K58V counted along it
T6 sequence (O43715 whole entry partner): as the sequence (O43715 whole entry partner) above

CCCCCCCC/C=C\CCCCCCCC(=O)OC[C@H](COP(=O)(O)O)OC(=O)CCCCCCCCCCCNc1ccc([N+](=O)[O-])c2nonc12 [NBD-PA]
liposome lipid transfer, NBD dequenching (PRELID1–TRIAP1 [1]): While efficiently mediating the transfer of PA, PRELID1 showed a low PS transfer activity
liposome lipid transfer, NBD dequenching (Ups2Δ174–Mdm35; inefficient substrate): Ups2–Mdm35 complexes transferred PA only inefficiently when compared to PS
liposome lipid transfer, NBD dequenching (Ups1–Mdm35 [2]; 12.5 nM complex): PA transfer of wildtype (WT) and mutant Ups1–Mdm35 complexes in vitro
liposome lipid transfer, NBD dequenching (Ups2 loop-swap variant): we observed efficient PA transport by the loop-swap variant of Ups2

CCCCCCCC/C=C\CCCCCCCC(=O)OC[C@H](COP(=O)(O)OC[C@H](N)C(=O)O)OC(=O)CCCCCCCCCCCNc1ccc([N+](=O)[O-])c2nonc12 [NBD-PS]
liposome lipid transfer, NBD dequenching (PRELID1–TRIAP1 [1]; 120 nM complex, low activity): PRELID1 showed a low PS transfer activity, similar to Ups1
liposome lipid transfer, NBD dequenching (Ups2Δ174–Mdm35): PS transfer by Ups2 and loop-swap variant
liposome lipid transfer, NBD dequenching (Ups1–Mdm35 [2]; 50 nM complex, inefficient substrate): Ups1–Mdm35 complexes transferred PS only inefficiently when compared to PA
liposome lipid transfer, NBD dequenching (Ups2 loop-swap variant): its ability to transfer PS was significantly reduced
liposome lipid transfer, NBD dequenching (Ups1–Mdm35 [3]): The mutations K58V or E108D in Ups1 increased PS transport
liposome lipid transfer, NBD dequenching (PRELID1–TRIAP1 [4]): substitution of K58 by valine or threonine substantially increased the ability of PRELID1
liposome lipid transfer, NBD dequenching (PRELID1–TRIAP1 [5]): substitution of K58 by valine or threonine substantially increased the ability of PRELID1
liposome lipid transfer, NBD dequenching (Ups1–Mdm35 [6]): The mutations K58V or E108D in Ups1 increased PS transport

Reference: article PMC6408443, “Structural determinants of lipid specificity within Ups/PRELI lipid transfer proteins” (Nature Communications, 2019)
